Measured values published in ChEMBL document CHEMBL5537154, “Smart glypican-3-targeting peptide-chlorin e6 conjugates for targeted photodynamic therapy of hepatocellular carcinoma” (Eur J Med Chem, 2024).
Active and inactive are the calls of the source. The rule behind the calls is not given here. Peptide text beside a SMILES is read from it.

Tests used:
[1] = Drug uptake in lysosome of human HepG2 cells assessed as pearsons co-efficient of lyso tracker green DND-26-yellow signal at 2 uM incubated for 24 hrs by laser confocal microscopy; format: ADME, subcellular; details: hepg2, 24 h
[2] = Drug uptake in human HepG2 cells at 10 uM by confocal microscopy; format: ADME, cell-based; details: hepg2, 10 µM, TDE = time-dependent effect, time 4-24 hrs
HepG2 [3] = experiment: Induction of apoptosis in human HepG2 cells assessed as necrotic cells at 2.5 uM incubated for 24 hrs followed by 10 J/cm2 of light irradiation at 660 nm measured after 24 hrs by Annexin V-FITC/PI staining based flow cytometry relative to control; format: functional; details: time 48 hrs
[4] = Drug uptake in human MCF7 cells at 10 uM incubated for 4 hrs by confocal microscopy; format: ADME, cell-based; details: mcf7, 4 h
MCF7 = experiment: Antiproliferative activity against human MCF7 cells under 10 J/cm2 light irradiation at 660 nm by CCK8 assay; format: functional, cell-based; details: MCF7, light or radiation study
[5] = Drug distribution in BALB/C nude mouse model xenografted with human HepG2 cells at 1 to 2 uM/kg, iv measured after 1 hr by fluorescence imaging analysis; format: ADME, organism-based; details: in vivo, dose 1-2 µM/Kg
Huh-7 [6] = experiment: Induction of cell cycle arrest at S phase in human Huh-7 cells at 1 uM under 10 J/cm2 light irradiation at 660 nm by flow cytometry; format: functional, cell-based
[7] = Drug distribution in spleen of BALB/C nude mouse model xenografted with human HepG2 cells at 1 to 2 uM/kg, iv measured for 1 to 4 hrs by fluorescence imaging analysis; format: ADME, organism-based; details: in vivo, dose lower 1 µM/Kg, time lower 1 hrs, dose upper 2 µM/Kg, time upper 4 hrs
[8] = Antiproliferative activity against human HUVEC cells under dark condition by CCK8 assay; format: toxicity, cell-based
[9] = Drug distribution in lung of BALB/C nude mouse model xenografted with human HepG2 cells at 1 to 2 uM/kg, iv measured for 1 to 4 hrs by fluorescence imaging analysis; format: ADME, organism-based; details: in vivo, dose lower 1 µM/Kg, time lower 1 hrs, dose upper 2 µM/Kg, time upper 4 hrs
HepG2 [10] = experiment: Induction of apoptosis in human HepG2 cells assessed as late apoptotic cells at 5 uM incubated for 24 hrs followed by 10 J/cm2 of light irradiation at 660 nm measured after 24 hrs by Annexin V-FITC/PI staining based flow cytometry relative to control; format: functional; details: time 48 hrs
Huh-7 [11] = experiment: Antiproliferative activity against human Huh-7 cells under dark condition by CCK8 assay; format: functional, cell-based
[12] = Drug uptake in human MCF7 cells incubated for 2 hrs by fluorescence based assay; format: ADME, cell-based; details: mcf7, 2 h
HepG2 [13] = experiment: Induction of apoptosis in human HepG2 cells assessed as early apoptotic cells at 5 uM incubated for 24 hrs followed by 10 J/cm2 of light irradiation at 660 nm measured after 24 hrs by Annexin V-FITC/PI staining based flow cytometry relative to control; format: functional; details: time 48 hrs
[14] = Drug distribution in tumor of BALB/C nude mouse model xenografted with human Huh-7 cells at 1 to 2 uM/kg, iv measured for 1 to 6 hrs by fluorescence imaging analysis; format: ADME, organism-based, Neoplasm; details: in vivo, dose lower 1 µM/Kg, time lower 1 hrs, dose upper 2 µM/Kg, time upper 6 hrs
HepG2 [15] = experiment: Induction of apoptosis in human HepG2 cells assessed as late apoptotic cells under dark condition at 5 uM incubated for 24 hrs by Annexin V-FITC/PI staining based flow cytometry relative to control; format: functional
[16] = Drug uptake in endoplasmic reticulum of human Huh-7 cells at 2 uM incubated for 24 hrs by ER tracker green probe based laser confocal microscopy; format: ADME, subcellular; details: huh-7, 24 h
[17] = Antiproliferative activity against human HUVEC cells under 10 J/cm2 light irradiation at 660 nm by CCK8 assay; format: toxicity, cell-based
HepG2 [18] = experiment: Induction of apoptosis in human HepG2 cells assessed as late apoptotic cells at 2.5 uM incubated for 24 hrs followed by 10 J/cm2 of light irradiation at 660 nm measured after 24 hrs by Annexin V-FITC/PI staining based flow cytometry relative to control; format: functional; details: time 48 hrs
[19] = Drug distribution in tumor of BALB/C nude mouse model xenografted with human HepG2 cells at 1 to 2 uM/kg, iv measured for 1 to 6 hrs by fluorescence imaging analysis; format: ADME, organism-based, Neoplasm; details: in vivo, dose lower 1 µM/Kg, time lower 1 hrs, dose upper 2 µM/Kg, time upper 6 hrs
[20] = Drug uptake in lysosome of human Huh-7 cells at 2 uM incubated for 24 hrs by lyso tracker green DND-26 probe based laser confocal microscopy; format: ADME, subcellular; details: huh-7, 24 h
[21] = Toxicity in BALB/C nude mouse model xenografted with human HepG2 cells assessed as damage in lung at 1 to 2 uM/kg, iv administered every two days for 21 days along with 250 mW/cm2 light irradiation at 660 nm for 10 mins at 1 hr post-compound administration by H and E staining based analysis; format: organism-based; details: in vivo, 505.17 h, dose 1-2 µM/Kg, time 505.166 hrs
[22] = Photostability of compound under 250 mW/cm2 light irradiation at 660 nm incubated for 10 mins by UV spectrophotometry; format: physicochemical; details: 0.66 µM
[23] = Toxicity in BALB/C nude mouse model xenografted with human HepG2 cells assessed as change in lung weight at 1 to 2 uM/kg, iv administered every two days for 21 days along with 250 mW/cm2 light irradiation at 660 nm for 10 mins at 1 hr post-compound administration; format: organism-based; details: in vivo, 505.17 h, dose 1-2 µM/Kg, time 505.166 hrs
[24] = Drug distribution in liver of BALB/C nude mouse model xenografted with human HepG2 cells at 1 to 2 uM/kg, iv measured for 1 to 4 hrs by fluorescence imaging analysis; format: ADME, organism-based; details: in vivo, dose lower 1 µM/Kg, time lower 1 hrs, dose upper 2 µM/Kg, time upper 4 hrs
[25] = Drug distribution in tumor of BALB/C nude mouse model xenografted with human Huh-7 cells administered intravenously measured after 2 hrs by fluorescence spectrophotometry; format: ADME, tissue-based, Neoplasm; details: in vivo, iv, dose 1-2 µM/Kg
[26] = Toxicity in BALB/C nude mouse model xenografted with human HepG2 cells assessed as change in spleen weight at 1 to 2 uM/kg, iv administered every two days for 21 days along with 250 mW/cm2 light irradiation at 660 nm for 10 mins at 1 hr post-compound administration; format: organism-based; details: in vivo, 505.17 h, dose 1-2 µM/Kg, time 505.166 hrs
[27] = Toxicity in BALB/C nude mouse model xenografted with human HepG2 cells assessed as damage in spleen at 1 to 2 uM/kg, iv administered every two days for 21 days along with 250 mW/cm2 light irradiation at 660 nm for 10 mins at 1 hr post-compound administration by H and E staining based analysis; format: organism-based; details: in vivo, 505.17 h, dose 1-2 µM/Kg, time 505.166 hrs
[28] = Drug distribution in heart of BALB/C nude mouse model xenografted with human HepG2 cells at 1 to 2 uM/kg, iv measured for 1 to 4 hrs by fluorescence imaging analysis; format: ADME, organism-based; details: in vivo, dose lower 1 µM/Kg, time lower 1 hrs, dose upper 2 µM/Kg, time upper 4 hrs
Huh-7 [29] = experiment: Antiproliferative activity against human Huh-7 cells under 10 J/cm2 light irradiation at 660 nm by CCK8 assay; format: functional, cell-based; details: Huh-7, light or radiation study
HepG2 [30] = experiment: Induction of cell cycle arrest at S phase in human HepG2 cells at 1 uM under 10 J/cm2 light irradiation at 660 nm by flow cytometry relative to control; format: functional
HepG2 [31] = experiment: Induction of cell cycle arrest at S phase in human HepG2 cells at 1 uM by flow cytometry relative to control; format: functional
HepG2 [32] = experiment: Induction of apoptosis in human HepG2 cells assessed as necrotic cells under dark condition at 2.5 uM incubated for 24 hrs by Annexin V-FITC/PI staining based flow cytometry relative to control; format: functional

For `C=Cc1c(C)c2cc3nc(c(CC(=O)O)c4[nH]c(cc5nc(cc1[nH]2)C(C)=C5CC)c(C)c4C(=O)NCCCC(=O)N[C@@H](CC(=O)O)C(=O)N[C@@H](Cc1cnc[nH]1)C(=O)N[C@@H](CC(C)C)C(=O)N[C@@H](C)C(=O)N[C@@H](CO)C(=O)N[C@@H](CC(C)C)C(=O)N[C@@H](Cc1c[nH]c2ccccc12)C(=O)N[C@@H](Cc1c[nH]c2ccccc12)C(=O)NCC(=O)N[C@H](C(=O)N[C@@H](CCC(=O)O)C(=O)N[C@@H](CC(C)C)C(=O)O)[C@@H](C)O)[C@@H](CCC(=O)O)[C@@H]3C` (HELM PEPTIDE1{[C=Cc1c(C)c2cc3nc(c(CC(=O)O)c4[nH]c(cc5nc(cc1[nH]2)C(C)=C5CC)c(C)c4C(=O)[*:2])[C@@H](CCC(=O)O)[C@@H]3C].[O=C(CCCN[*:1])[*:2]].D.H.L.A.S.L.W.W.G.T.E.L}$$$$V2.0), the Activity [1] was 0.79, the Drug uptake [2] was “Tde” and the Activity (HepG2 [3]) was 74%. The Drug uptake [4] was “Not Active”, the IC50 (MCF7) was over 10 µM and the Drug uptake [5] was “Active”. The Activity (Huh-7 [6]) was “Active”, the Drug uptake [7] was “Not Active” and the IC50 [8] was over 200 µM. The Drug uptake [9] was “Not Active”, the Activity (HepG2 [10]) was 9.3% and the IC50 (Huh-7 [11]) was over 100 µM. For the same molecule, the Drug uptake [12] was “Not Active”, the Activity (HepG2 [13]) was 8.4% and the Drug uptake [14] was “Active”. The Activity (HepG2 [15]) was 1.7%, the Drug uptake [16] was “Active” and the IC50 [17] was over 10 µM. For the same molecule, the Activity (HepG2 [18]) was 17.8%, the Drug uptake [19] was “Active” and the Drug uptake [20] was “Active”. For the same molecule, the Activity [21] was “Non-Toxic”, the Stability [22] was “Stable” and the Activity [23] was “Non-Toxic”. For the same molecule, the Drug uptake [24] was “Not Active”, the Drug uptake [25] was “Active” and the Activity [26] was “Non-Toxic”. For the same molecule, the Activity [27] was “Non-Toxic”, the Drug uptake [28] was “Not Active” and the IC50 (Huh-7 [29]) was 2.4 µM. It also gave an Activity (HepG2 [30]) of 27.7%, an Activity (HepG2 [31]) of 21.8% and an Activity (HepG2 [32]) of 0.2%.
